Measurements: US20110281852A1 (priority 2010, published 2011)

Assays:
SREBP-1 = assay: Real-time RT-PCR, SREBP-1 mRNA in 3T3-L1; assay type: cell-based, mouse; conditions: 8 days
Description: (§1) Realtime RT-PCR: Real-time reverse transcriptase polymerase chain reaction (RT-PCR) analysis was used to measure mRNA expression of genes SREBP-1, PPARγ, C/EBPα, low density lipoprotein receptor (LDLR), Adiponectin, and fatty acid synthase (FAS) under the control of β-actin. Briefly, total RNA was isolated from 3T3-L1 cells following treatment for 8 days with Trizol reagent (Invitrogen, Carlsbad, Calif., USA) according to the manufacturer's instruction. RNA was quantified using absorption of light at 260 nm, and sample purity was checked by OD 260 nm/280 nm. 0.8 μg of total RNA from each sample was used for reverse transcription reaction using the TaqMan Reverse Transcription Reagents (Applied Biosystems, Foster City, Calif., USA) according to the manufacturers' instructions. PCR was done using the SYBR green Master Mix (Applied Biosystems, Foster City, Calif., USA) according to the manufacturers' instructions. The temperature cycling conditions of amplification were as follows: an initial step of denaturation at 95° C. for 10 min, 40 cycles of denaturation at 95° C. for 30 s, annealing at 55° C. for 30 s, and elongation at 72° C. for 30 s. Realtime RT-PCR was performed using Mx3000P Realtime Thermocyclers (Statagene, La Jolla, Calif., USA). The relative mRNA levels of these genes were calculated by 2-delta delta CT method and normalized with control groups.

C/EBPα [1] = assay: Real-Time RT-PCR, C/EBPα mRNA in epididymal fat of FD mice; assay type: in vivo, mouse
Experimental: RNA and protein purification and quantification from epididymal fat tissues: RNA and protein was isolated from 60 mg of epididymal fat tissues with Trizol (Invitrogen, Carlsbad, Calif., USA) following the protocol recommended by the manufacturers. RNA was dissolved in pure water and quantified at 260/280 nm, and sample integrity was checked by 1.5% agarose gel electrophoresis. Protein concentration was determined using the Micro BCA Protein Assay Kit (Fisher Scientific, Pittsburgh, Pa., USA) according to the manufacturer's instructions.
Quantitative Real-Time RT-PCR: Real-Time reverse transcriptase polymerase chain reaction (RT-PCR) analysis was used to measure mRNA expression of genes PPARγ, C/EBPα, GATA-2 and GATA-3 in the control of β-actin. Total RNA (0.8 μg) from each sample was used for a reverse transcription reaction using the TaqMan Reverse Transcription Reagents (Applied Biosystems, Foster City, Calif., USA) following the manufacturer's instructions. PCR was done using the SYBR green Master Mix (Applied Biosystems, Foster City, Calif., USA) following the manufacturer's instructions. The cycling conditions of amplification were as follows: an initial step of denaturation at 95° C. for 10 min, 40 cycles of denaturation at 95° C. for 30 s, annealing at 55° C. for 30 s, and elongation at 72° C. for 30 s. Real-Time PCR was performed using Mx3000P Real-Time Thermocyclers (Stratagene, La Jolla, Calif., USA). The relative mRNA levels of these genes were calculated by 2-delta delta CT method and normalized with control-treated groups.

Adiponectin = assay: Real-time RT-PCR, Adiponectin mRNA in 3T3-L1; assay type: cell-based, mouse; conditions: 8 days
Description: as §1

C/EBPα [2] = assay: Real-time RT-PCR, C/EBPα mRNA in 3T3-L1; assay type: cell-based, mouse; conditions: 8 days
Description: as §1

GATA-2 = assay: Immunoblot, GATA-2 protein in HWP; assay type: cell-based, human; conditions: day 15
Experimental: Immunoblot Analysis: Protein expression of GATA-2, GATA-3, PPARγ and C/EBPα were assessed by Western Blot. Total proteins were isolated from HWP treated with compounds or vehicles on day 15. The cells were washed twice with PBS, lysed in a lysis buffer containing HEPES-Tx-PI buffer: […] HEPES, 5 mM EDTA, 350 mM Sucrose, 1 μg/ml leupeptin, 1 μg/ml pepstatin, 1% Triton-X, 1 mM PMSF), processed with a 25G needle and centrifuged at 10,000 rpm for 5 min. Protein concentration was determined using the Micro BCA Protein Assay Kit (Fisher Scientific, Pittsburgh, Pa., USA) according to the manufacturers instructions. 20 μg proteins were loaded and separated by electrophoresis using the BioRad Electrophoretic System (60 V for 1 hour followed by 90 V for 5 hours). The proteins were then transferred to nitrocellulose membranes at 35 V overnight. The membrane was blocked for 1 hour at room temperature in 5% nonfat milk in Tris-buffered saline (TBS), then washed with Tween-20-TBS (TTBS, 0.1% Tween-20) three times (15 min, 5 min, 5 min), followed by incubation with primary antibodies human GATA-2, GATA-3, PPARγ, C/EBPα and β-actin (dilution 1:200) (all antibodies were purchased from Santa Cruz Biotechnology, Santa Cruz, Calif., USA) at room temperature for 2 hours. The membrane was rinsed three times (15 min, 5 min, 5 min), then incubated at room temperature for 1 hour with Horseradish peroxidase-conjugated second antibody (1:10,000). The membrane was then incubated in ECL reagent (GE Healthcare, Piscataway, N.J., USA) for 1 minute. Protein was visualized using the UVP image analysis system (UVP, Upland, Calif., USA).

[3] = 8 μM berberine + 15 μM clozapine
[4] = 8 μM berberine + 50 μM risperidone

Molecule	decrease of SREBP-1 mRNA expression vs clozapine treated group (SREBP-1; [3]) [%]	decrease of SREBP-1 mRNA expression vs risperidone treated group (SREBP-1; [4]) [%]	decrease of C/EBP-α mRNA expression vs control group (C/EBPα [1]; 0.75 mg/kg/day) [%]	decrease of C/EBP-α mRNA expression vs control group (C/EBPα [1]; 1.5 mg/kg/day) [%]	decrease of C/EBP-α mRNA expression vs control group (C/EBPα [1]; 3 mg/kg/day) [%]	decrease of adiponectin mRNA expression vs clozapine treated group (Adiponectin; [3]) [%]	decrease of Adiponectin mRNA expression vs risperidone treated group (Adiponectin; [4]) [%]	decrease of C/EBPα mRNA expression vs clozapine treated group (C/EBPα [2]; [3]) [%]	decrease of C/EBPα mRNA expression vs risperidone treated group (C/EBPα [2]; [4]) [%]	GATA-2 protein expression relative to β-actin, normalized with controls (GATA-2; 1 μM) [fold]	GATA-2 protein expression relative to β-actin, normalized with controls (GATA-2; 2 μM) [fold]	GATA-2 protein expression relative to β-actin, normalized with controls (GATA-2; 4 μM) [fold]
COc1ccc2cc3[n+](cc2c1OC)CCc1cc2c(cc1-3)OCO2.[Cl-] [berberine, Berberine (Chloride Form)]	68.9	80.9	46.4	66.1	72.7	96.3	98.2	94.7	96.4			
evodiamine										2.44	4.81	4.92
